Test results published in patent US9968582B2, “Use of a benzoate containing composition in urea cycle disorders and neurodegenerative disorders” (Rush University Medical Center, priority 2014, dated 2018).

Key:
[1] = test system: female PLP-TCR transgenic (Tg) mice; test: Relapsing EAE in PLP-TCR transgenic mice, clinical symptoms; type: in vivo; details: FIG. 1B
male C57/BL6 mice = test: Chronic EAE (MOG35-55), clinical symptoms; type: in vivo; details: chronic model, FIG. 1C
Method: C57BL/6 mice were immunized with 100 μg of MOG35-55 as described above. Mice also received two doses of pertussis toxin (150 ng/mouse) on 0 and 2 dpi.
GTB was mixed in 0.5% methylcellulose (MC) and EAE mice were gavaged 100 μL GTB-mixed MC once daily using gavage needle. Therefore, control EAE mice received only MC as vehicle.
While female SJL/J mice are used to induce RR-EAE, chronic form of EAE is modeled in male C57/BL6 mice upon immunization with MOG35-55. Therefore, the inventor examined the efficacy of GTB in suppressing the disease process of chronic EAE.

[2] = test system: blood-brain barrier and blood-spinal cord barrier; test: Integrity of BBB and BSB, infrared dye (Alexa-680) entry into CNS of EAE mice; type: in vivo
From the text: BBB and BSB are membranic structures that act primarily to protect the brain and the spinal cord, respectively from chemicals in the blood, while still allowing some essential molecules to enter. It is known that during active MS and EAE, BBB and BSB break down in a section of the brain and spinal cord, respectively due to widespread inflammation thereby allowing different blood molecules and toxins enter into the CNS. Therefore, the inventor investigated if GTB treatment modulated the integrity of BBB and BSB. The inventor injected an infrared dye (Alexa-680) via tail-vein and 2 h after the injection, live mice were scanned in an Odyssey infra-red scanner. As evidenced from FIG. 3A (first lane), infra-red signals were not visible on areas over the brain and the spinal cord in control HBSS-injected mice. […] In FIG. 3C, the top row relates to the frontal cortex, the middle row relates to the midbrain, and the last row relates to the cerebellum. In FIG. 3D, the first column relates to the control, the second column relates to EAE, the third column relates to EAE+GTB, the fourth column relates to EAE+Vehicle, and the y-axis is density of infrared signal.

spinal cord of EAE mice = test: H&E histology, infiltration of inflammatory cells and cuffed vessels in spinal cord of EAE mice; type: in vivo; details: GTB from 8 dpt, sacrificed 16 dpt
From the text: On 14 dpi (first chronic phase), five mice from each of the following groups (control, EAE, EAE+GTB, and EAE+vehicle) were anesthetized. After perfusion with phosphate buffered saline (PBS) (pH 7.4) and then with 4% (w/v) paraformaldehyde solution in PBS, cerebellum and whole spinal cord was dissected out from each mouse. The tissues were further fixed and then divided into halves: one-half was used for histological staining whereas the other half was used for myelin staining. For histological analysis, routine histology was performed to obtain perivascular cuffing and morphological details of CNS tissues of EAE mice. Paraformaldehyde-fixed tissues were embedded in paraffin, and serial sections (4 μm) were cut. Sections were stained with conventional H&E staining method. Digital images were collected under bright-field setting using an ×40 objective. Slides were assessed in a blinded fashion by three examiners for inflammation in different anatomical compartments (meninges and parenchyma). Inflammation was scored using the following scale as described: for meninges and parenchyma: 0, no infiltrating cells; 1, few infiltrating cells; 2, numerous infiltrating cells; and 3, widespread infiltration. For vessels: 0, no cuffed vessel; 1, one or two cuffed vessels per section; 2, three to five cuffed vessels per section and 3, more than five cuffed vessels per section. At least six serial sections of each spinal cord from each of five mice per group were scored and statistically analyzed by ANOVA.
Infiltration of autoreactive T cells and associated mononuclear cells is a hallmark of EAE as well as MS. The inventor examined whether GTB treatment attenuated infiltration and inflammation in adoptively-transferred EAE mice. Mice receiving GTB from 8 dpt (onset of the acute phase) were sacrificed on 16 dpt. […] In contrast, vehicle was unable to inhibit the infiltration of inflammatory cells (FIG. 4A).

iNOS = test: Expression of iNOS in spinal cord of EAE mice (RT-PCR); type: in vivo; details: FIG. 4D-F
Method: (§1) Total RNA was isolated from splenic T cells and spinal cord by using the RNeasy mini kit (Qiagen, Valencia, Calif.) and from spleen and cerebellum by using the Ultraspec-II RNA reagent (Biotecx laboratories, Inc, Houston, Tex.) following manufacturer's protocol. To remove any contaminating genomic DNA, total RNA was digested with DNase. Semi-quantitative RT-PCR was carried out using a RT-PCR kit from Clonetech (Mountain View, Calif.). Briefly, 1 μg of total RNA was reverse transcribed using oligo(dT)12-18 as primer and MMLV reverse transcriptase (Clontech) in a 20 μL reaction mixture. The resulting cDNA was appropriately-diluted, and diluted cDNA was amplified using Titanium Taq DNA polymerase and following primers. Amplified products were electrophoresed on a 1.8% agarose gels and visualized by ethidium bromide staining.
(§2) The relative expression of each gene with respect to GAPDH was measured after scanning the bands with a Fluor Chem 8800 Imaging System (Alpha Innotech, San Leandro, Calif.).
(§3) Real-time PCR analysis was performed using the ABI-Prism7700 sequence detection system (Applied Biosystems, Foster City, Calif.). […] Data were processed by the ABI Sequence Detection System 1.6 software and analyzed by ANOVA. […]

IL-1β = test: Expression of IL-1β in spinal cord of EAE mice (RT-PCR); type: in vivo; details: FIG. 4D-F
Method: as §1, §2, §3

[3] = test system: Tyrosine hydroxylase (TH); test: MPTP mouse model of PD, Western blot of nigral TH; type: in vivo, mice; details: FIG. 9A-B
Method: Six- to eight-week old C57BL/6 mice were purchased from Harlan (Indianapolis, Ind.). For acute MPTP intoxication, mice received four intraperitoneal (i.p.) injections of MPTP-HCl (18 mg/kg of free base; Sigma Chemical Co., St. Louis, Mo.) in saline at 2-h intervals. Control animals received only saline.
GTB was mixed in 0.5% methylcellulose (MC) and from 3 h after the last injection of MPTP, mice were gavaged 100 μL GTB-mixed MC once daily using gavage needle. Therefore, control MPTP mice received only MC as vehicle.
Immunoblot analysis for DJ-1 and TH was carried out. Briefly, cell homogenates were electrophoresed, proteins were transferred onto a nitrocellulose membrane, and bands were visualized with an Odyssey infrared scanner after immunolabeling with respective primary antibodies followed by infra-red fluorophore-tagged secondary antibody (Invitrogen).
Tyrosine hydroxylase (TH), the key enzyme responsible for the production of dopamine, is present in dopaminergic neurons. MPTP-intoxication led to approximately 60% loss of nigral TH (FIG. 9A-B) compared with saline-injected controls.

O=C(OCC(COC(=O)c1ccccc1)OC(=O)c1ccccc1)c1ccccc1 [GTB, glyceryl tribenzoate]
dose of maximum inhibition of EAE ([1]; GTB from 8 dpi): 50 mg/kg body wt/d | clinical symptoms (mean clinical score) ([1]; different doses of GTB from 8 dpi, 10 μg/mouse PLP139-151): inhibitory effect of GTB on the clinical symptoms was clearly observed | clinical symptoms of EAE (male C57/BL6 mice): strongly inhibited the clinical symptoms | entry of infra-red dye into the CNS, live mice ([2]; scan 2 h after tail-vein injection of Alexa-680, FIG. 3A): strongly inhibited the entry of infra-red dye into the CNS | entry of infra-red dye into spinal cord and parts of the brain, dissected tissue ([2]; spinal cord, frontal cortex, midbrain, cerebellum, FIG. 3B-D): markedly attenuated the entry of infra-red dye | infiltration of inflammatory cells into the spinal cord (H&E) (spinal cord of EAE mice; FIG. 4A): markedly inhibited the infiltration of inflammatory cells | quantitation of infiltration (spinal cord of EAE mice; FIG. 4B): dramatically reduced infiltration | appearance of cuffed vessels (spinal cord of EAE mice; FIG. 4C): dramatically reduced | expression of iNOS in the spinal cord (iNOS): dramatically reduced the expression | expression of IL-1β in the spinal cord (IL-1β): dramatically reduced the expression | nigral TH ([3]; GTB 25 mg/kg body wt/d): protection was evident | nigral TH ([3]; oral GTB in MPTP-intoxicated mice): protected nigral TH in a dose-dependent manner
